Results taken from DBAASP.
Converted amounts (≈) assume the structure as drawn. “And” between values parts separate entries of the source, which are not always exact repeats. Identical values can stand only once. Blank lines part the entries; values can stand above or below the molecule they belong to.

Experiments:
Assay in all cases: ≥ marks a high value that may be exact or a test limit, other limits are often not marked, values filed in µg/mL are converted to µM
[1] = system: Vibrio nigripulchritudo CIP 103195
[2] = system: Corynebacterium stationis CIP 101282
[3] = system: Bacillus megaterium CIP 6620
[4] = system: Staphylococcus aureus SG511
[5] = system: Staphylococcus aureus CIP 103428
[6] = system: Micrococcus luteus CIP 5345
[7] = system: Microbacterium maritypicum CIP 105733T
[8] = system: Vibrio splendidus CIP 107715
[9] = system: Staphylococcus haemolyticus
Escherichia coli SBS 363 = system: Escherichia coli SBS 363
[10] = system: Candida tropicalis CCARM 14019
Klebsiella pneumoniae = system: Klebsiella pneumoniae
[11] = system: Escherichia coli ATCC 25922
[12] = system: Candida albicans ATCC 2002
[13] = system: Staphylococcus aureus ATCC 2592
Shigella dysenteriae = system: Shigella dysenteriae
[14] = system: Pseudomonas aeruginosa CMCCB 10104
Bacillus megaterium = system: Bacillus megaterium
[15] = system: Staphylococcus aureus ATCC 33591
[16] = system: Cryptococcus neoformans ATCC 32264
Escherichia coli = system: Escherichia coli
Salmonella sp. = system: Salmonella sp.
[17] = system: Candida albicans ATCC 10231
[18] = system: Salmonella enterica subsp. enterica serovar Enteritidis
[19] = system: Staphylococcus aureus ATCC 29213
[20] = system: Pseudomonas aeruginosa ATCC 27853
[21] = system: Staphylococcus aureus ATCC 43300
Yersinia enterocolitica = system: Yersinia enterocolitica
[22] = system: Pseudomonas aeruginosa NCDC 0105
[23] = system: Staphylococcus aureus NCDC 0111
[24] = system: Acinetobacter johnsonii NCDC 0072
[25] = system: Bacillus cereus NCDC 0240
[26] = system: Escherichia coli MTCC 0723
[27] = system: Salmonella enterica subsp. enterica serovar Typhimurium ATCC 14028
[28] = system: Listeria monocytogenes ATCC 19111
[29] = system: Pseudomonas aeruginosa DM23155
[30] = system: Klebsiella pneumoniae DM4299
[31] = system: Pseudomonas aeruginosa PAER1
[32] = system: Pseudomonas aeruginosa 6294
Staphylococcus aureus 31 = system: Staphylococcus aureus 31
Staphylococcus aureus 38 = system: Staphylococcus aureus 38
[33] = system: Staphylococcus aureus ATCC 6538
[34] = system: Stenotrophomonas maltophilia
Burkholderia cepacia = system: Burkholderia cepacia
[35] = system: Pseudomonas aeruginosa 6206
[36] = system: Elizabethkingia meningoseptica
[37] = system: Pseudomonas aeruginosa ATCC 19660
Delftia acidovorans = system: Delftia acidovorans

- MIC [1]: ≥ 40 µM
- MIC [2]: 20 µM (≈ 31.1 µg/mL)
- MIC [3]: 20 µM (≈ 31.1 µg/mL)
- MIC [4]: 20 µM (≈ 31.1 µg/mL)
- MIC [5]: 20 µM (≈ 31.1 µg/mL)
- MIC [6]: ≥ 80 µM
- MIC [7]: 20 µM (≈ 31.1 µg/mL)
- MIC [8]: ≥ 40 µM
- MIC (Escherichia coli SBS 363): ≥ 80 µM
Compound: CC[C@H](C)[C@H](NC(=O)[C@@H]1CCCN1C(=O)CN)C(=O)N[C@@H](CCCN=C(N)N)C(=O)N[C@@H](CCCN=C(N)N)C(=O)N1CCC[C@H]1C(=O)N[C@@H](CCC(=O)O)C(=O)N1CCC[C@H]1C(=O)N[C@@H](CCCN=C(N)N)C(=O)N1CCC[C@H]1C(=O)N[C@@H](CCCN=C(N)N)C(=O)N1CCC[C@H]1C(=O)N[C@@H](CCC(=O)O)C(=O)O [GPIRRPEPRPRPE]
- MIC [9]: 20 µM (≈ 31.1 µg/mL)

- MIC [10]: 0.466 µM and 0.931 µM
Compound: CC(C)C[C@H](NC(=O)CNC(=O)[C@H](Cc1cnc[nH]1)NC(=O)[C@H](Cc1cnc[nH]1)NC(=O)[C@H](CCCN=C(N)N)NC(=O)[C@H](CCCCN)NC(=O)[C@H](C)N)C(=O)N[C@@H](CC(N)=O)C(=O)N[C@@H](CS)C(=O)N[C@@H](C)C(=O)N[C@@H](CCCCN)C(=O)N[C@@H](Cc1ccccc1)C(=O)N[C@@H](Cc1cnc[nH]1)C(N)=O [AKRHHGLNCAKFH]

- MIC (Klebsiella pneumoniae): 3.33 µM (≈ 9 µg/mL)
- MIC [11]: 7.21 µM (≈ 19.5 µg/mL)
- MIC [12]: 1.11 µM (≈ 3 µg/mL)
- MIC [13]: 7.21 µM (≈ 19.5 µg/mL)
- MIC (Shigella dysenteriae): 0.999 µM (≈ 2.7 µg/mL)
- MIC [14]: 7.21 µM (≈ 19.5 µg/mL)
- MIC (Bacillus megaterium): 7.21 µM (≈ 19.5 µg/mL)
Compound: CC[C@H](C)[C@H](NC(=O)CN)C(=O)NCC(=O)N[C@H](C(=O)N[C@@H](CCCCN)C(=O)N[C@H](C(=O)N[C@@H](CC(C)C)C(=O)NCC(=O)NCC(=O)N[C@H](C(=O)N[C@@H](CCCCN)C(=O)N[C@H](C(=O)N[C@@H](C)C(=O)N[C@@H](CC(C)C)C(=O)N[C@@H](CCCCN)C(=O)NCC(=O)N[C@@H](C)C(=O)N[C@@H](CC(C)C)C(=O)N[C@@H](CCCCN)C(=O)N[C@@H](CCC(=O)O)C(=O)N[C@@H](CC(C)C)C(=O)N[C@@H](C)C(=O)N[C@@H](CO)C(=O)N[C@H](C(=O)N[C@@H](Cc1ccc(O)cc1)C(=O)N[C@H](C(=O)N[C@@H](CC(N)=O)C(N)=O)C(C)C)[C@@H](C)O)[C@@H](C)O)C(C)C)[C@@H](C)CC)[C@@H](C)O [GIGTKILGGVKTALKGALKELASTYVN]

- MIC [15]: ≥ 256 µM
- MIC [16]: ≥ 50 µM
- MIC (Escherichia coli): 17.7 µM (≈ 38.2 µg/mL)
- MIC (Salmonella sp.): ≥ 50 µM
- MIC [17]: 50 µM (≈ 108 µg/mL)
- MIC [18]: 25 µM (≈ 54 µg/mL)
- MIC [19]: > 50 µM
- MIC [11]: 64 µM and 50 µM
- MIC [20]: > 50 µM
- MIC [21]: > 50 µM
- MIC (Yersinia enterocolitica): ≥ 50 µM
Compound: CC[C@H](C)[C@H](NC(=O)[C@H](CCCCN)NC(=O)[C@@H](NC(=O)[C@H](CCC(N)=O)NC(=O)[C@@H](N)CCCCN)[C@@H](C)CC)C(=O)N[C@@H](Cc1c[nH]c2ccccc12)C(=O)N[C@@H](Cc1ccccc1)C(=O)N[C@@H](CCC(N)=O)C(=O)N[C@@H](CC(N)=O)C(=O)N[C@@H](CCCCN)C(=O)N[C@@H](CCCCN)C(=O)N[C@@H](CCSC)C(=O)N[C@@H](CCCCN)C(=O)N[C@@H](Cc1c[nH]c2ccccc12)C(=O)N[C@@H](CCCCN)C(=O)N[C@@H](CCCCN)C(N)=O [KQIKIWFQNKKMKWKK]

- MIC [22]: ≥ 50 µM
- MIC [23]: 6 µM (≈ 10.6 µg/mL)
- MIC [19]: 6 µM (≈ 10.6 µg/mL)
- MIC [24]: ≥ 200 µM
- MIC [20]: 100 µM (≈ 177 µg/mL)
- MIC [25]: ≥ 100 µM
- MIC [26]: ≥ 200 µM
- MIC [27]: 0.2 µM (≈ 0.355 µg/mL)
- MIC [28]: 3 µM (≈ 5.32 µg/mL)
Compound: CC[C@H](C)[C@H](NC(=O)[C@H](CO)NC(=O)[C@H](Cc1c[nH]c2ccccc12)NC(=O)[C@@H]1CCCN1C(=O)[C@@H](NC(=O)[C@H](C)N)[C@@H](C)CC)C(=O)N[C@@H](Cc1c[nH]c2ccccc12)C(=O)N[C@@H](Cc1c[nH]c2ccccc12)C(=O)N[C@@H](CCCN=C(N)N)C(=O)N[C@@H](CC(C)C)C(=O)N[C@@H](CC(C)C)C(=O)N[C@@H](Cc1ccccc1)C(=O)N[C@@H](CCCCN)C(=O)NCC(=O)O [AIPWSIWWRLLFKG]

- MIC [11]: 1.5 µM (≈ 1.86 µg/mL)
- MIC [29]: 6 µM (≈ 7.44 µg/mL)
- MIC [30]: 3 µM (≈ 3.72 µg/mL)
Compound: CC(=O)N[C@@H](CCCN=C(N)N)C(=O)NCC(=O)N[C@@H](CCCN=C(N)N)C(=O)N[C@@H](CCCCN)C(=O)NCC(=O)NCC(=O)N[C@@H](CCCN=C(N)N)C(=O)N[C@@H](CCCN=C(N)N)C(=O)N[C@@H](CCCCN)C(=O)N[C@@H](CCCCN)C(=O)O [RGRKGGRRKK]

- MIC [31]: ≥ 106 µM
- MIC [32]: ≥ 106 µM
- MIC (Staphylococcus aureus 31): ≥ 106 µM
- MIC (Staphylococcus aureus 38): ≥ 106 µM
- MIC [33]: 53.2 µM (≈ 125 µg/mL)
- MIC [34]: 13.3 µM (≈ 31.2 µg/mL)
- MIC (Burkholderia cepacia): ≥ 426 µM
- MIC [35]: 26.6 µM (≈ 62.5 µg/mL)
- MIC [36]: ≥ 213 µM
- MIC [37]: 26.6 µM (≈ 62.5 µg/mL)
- MIC (Delftia acidovorans): ≥ 426 µM
Compound: NCCCC[C@H](NC(=O)[C@H](CCCN=C(N)N)NC(=O)[C@H](CCCCN)NC(=O)[C@H](CC(N)=O)NC(=O)[C@@H](N)CCCCN)C(=O)N[C@@H](CCCN=C(N)N)C(=O)N[C@@H](CCCN=C(N)N)C(=O)N[C@@H](CCCN=C(N)N)C(=O)N[C@@H](CCCN=C(N)N)C(=O)N[C@@H](CCCN=C(N)N)C(=O)N[C@@H](CCCN=C(N)N)C(=O)NCC(=O)NCC(=O)N[C@@H](CCCN=C(N)N)C(=O)N[C@@H](CCCN=C(N)N)C(=O)N[C@@H](CCCN=C(N)N)C(=O)N[C@@H](CCCN=C(N)N)C(=O)O [KNKRKRRRRRRGGRRRR]
